Data published in the NIST ThermoML archive (doi:10.1021/je401095k).
± gives the expanded uncertainty stated by the source.

Experiment: not given
Conditions: 293.2 K; 101.33 kPa; Liquid; Vibrating tube method

Compound | mass density
CCCC(=O)O [butanoic acid] | 952.68 ± 0.23 kg/m3
CC(=O)CCC(C)C [5-methyl-2-hexanone] | 887.92 ± 0.24 kg/m3

The remaining lines, values ahead:

mass density | Compound
1219.5 ± 0.42 kg/m3 | O=CO [formic acid]
866.71 ± 0.24 kg/m3 | CC(=O)OCCC(C)C [3-methylbutyl ethanoate]

Experiment: refractive index (Na D-line) (dimensionless)
Conditions: 293.2 K; 101.33 kPa; Liquid; Standard Abbe refractometry

Compound | refractive index
O [water] | 1.3324 ± 0.0008
CCCC(=O)O [butanoic acid] | 1.3977 ± 0.0008
CC(=O)CCC(C)C [5-methyl-2-hexanone] | 1.4051 ± 0.0008

The next lines start with the values.

refractive index | Compound
1.371 ± 0.0008 | O=CO [formic acid]
1.3976 ± 0.0008 | CC(=O)OCCC(C)C [3-methylbutyl ethanoate]
